Experimental data taken from patent publication US7968744B2, “Physiological coolants based on lactoyl esters of menthyl lactate” (Renessenz, LLC, priority 2007, dated 2011).

Test system: mouth (panel of three flavorists)
Assay: Sensory evaluation of cooling strength by a panel of three flavorists
Format: in vivo
Conditions: for Cooling strength score of reference standards: reference standards on the scale of 1 to 10, 10 being the strongest
Procedure: The sensory properties of crystalline MLL and liquid products that contain MLL (from Examples 1-5, above) are evaluated by a panel of three flavorists. The standard method involves holding an aqueous solution containing 20 ppm of coolant in the mouth for 30 seconds, then spitting it out and observing and quantifying the cooling effect when compared with a set of reference standards. Based on their cooling strength, the samples are scored on a scale of 1 to 10, with 10 being the strongest. Samples used as reference standards are to monomenthyl glutarate (3.5 on this scale), l-menthyl lactate (4.5) and N-ethyl-3-p-menthane carboxamide, i.e., WS-3 (10). Several coolant “cocktails,” i.e., liquid coolant-mixtures, are prepared, and their sensory properties are evaluated as in Example 6. The compositions and results appear in Table 2.

SMILES | Score (cooling strength) (aqueous solution containing 20 ppm of coolant held in the mouth for 30 seconds, scale of 1 to 10, 10 being the strongest, Table 1) | Cooling strength compared with reference coolants (in words) (sensory evaluation) | Cooling strength score of reference standards
CC(C)[C@@H]1CC[C@@H](C)C[C@H]1OC(=O)[C@H](C)OC(=O)[C@H](C)O [Example 6, l-menthyl L-lactoyl-L-lactate] | 4.0 | intermediate between that of l-menthyl lactate and monomenthyl glutarate | –
CCNC(=O)C1CC(C)CCC1C(C)C (centres unmarked) [WS-3, N-ethyl-3-p-menthane carboxamide] | – | – | 10
CC(C)[C@@H]1CC[C@@H](C)C[C@H]1OC(=O)[C@H](C)O [l-menthyl lactate] | – | – | 4.5
CC(C)[C@@H]1CC[C@@H](C)C[C@H]1OC(=O)CCCC(=O)O [monomenthyl glutarate] | – | – | 3.5
